# Test results published in patent US11351538B2, “Fluidic device and method of assembling same” (Northeastern University, priority 2017, dated 2022).
# Tested on: primary human intestinal epithelial monolayers
# Assay: Paracellular permeability measurement across primary organoid derived monolayers (bi-layer chips vs static inserts)
# Type: in vitro ADME
# Details: apical to basal, 5 days, p-value=0.0029
# Method: The apparent permeability coefficient for a 4.4 kDa, tetramethylrhodamine (TRITC) labeled dextran (cat no. T1037, Sigma-Aldrich) was determined by measuring transport across the Caco-2 cell monolayer. TEER values of cell monolayers were measured prior to the permeability assay and monolayers with TEER values below 165Ω×cm^2 were not used. For control Transwell cultures, 300 μL of 500 μM dextran in cell culture medium was applied to the apical compartment. 100 μL was immediately sampled from the apical compartment, transferred to a black, polystyrene, 96 well plate and stored in a 4° C. fridge. Transwells were maintained in a humidified, 37° C.+5% CO2 incubator. 100 μL aliquots were sampled from the basolateral compartment every 30 minutes over 3 hours and 100 μL of fresh medium preheated to 37° C. was added to replace the aliquoted volume. The fluorescence intensity of the collected basolateral samples was measured at 557 nm and 576 nm […] wavelengths, respectively. The actual dextran concentration was determined via a calibration curve. The apparent permeability coefficient was calculated as specified. […] The apparent permeability coefficient for Lucifer Yellow (cat no. L0259, Sigma-Aldrich) across primary organoid derived monolayers on static inserts and bi-layer chips was determined as described above. […]
substance,measurement,value
Lucifer Yellow,"apparent permeability, change between 5-day static and fluidic device models",significant increase
